In ChEMBL document CHEMBL1127119, “Pneumocandin antifungal lipopeptides. The phenolic hydroxyl is required for 1,3--glucan synthesis inhibition” (Bioorg Med Chem Lett, 1993) one finds MFC, IC50 and MED99.9 data, which are given here for 7 molecules.

Assay [1] has as its system Candida albicans. As to the kind of experiment: The compound was tested for its antifungal activity against Candida albicans (MY1055). It is filed as functional.
In assay [2] the test system is Candida albicans. Briefly: The compound was tested for inhibition of 1,3-beta-glucan synthesis in a preparation containing membranes from Candida albicans (MY1208). It is filed as functional.
Assay [3] concerns Candida parapsilosis. As to the kind of experiment: The compound was tested for its antifungal activity against Candida parapsilosis (MY1010). The following applies: Lodderomyces parapsilosis. It counts as functional.
Assay [4] has as its system Candida tropicalis. As to the kind of experiment: The compound was tested for its antifungal activity against Candida tropicalis (MY1012). It is filed as functional.
Assay [5] deals with Mus musculus. Briefly: Minimum effective dose required for 99.9% reduction of viable CFUs recoverable from mouse kidneys infected with Candida albicans (MY1208) using in vivo Target Organ Kidney Assay (TOKA). It counts as functional.
The species entered for assay [6] is Mus musculus. Briefly: Minimum effective dose required for 99.9% reduction of viable CFUs recoverable from mouse kidneys compared with sham-treated controls. It is filed as functional, Kidney.

By MFC is commonly meant the smallest concentration meeting the test's criterion for killing the fungus. Broadly, the IC50 is the concentration needed to halve the response being measured.

≈ marks a conversion by molar mass, not a printed value. Numbered stars: 1 amine (or outer) side, 2 acyl side, 3 side chain; on linkers, the order of the positions; unused ones are H or OH. Bridge positions count the residues as written; N and C are the ends. Square brackets hold non-standard residues; d marks the D form. Peptide text beside a SMILES is read from it. * marks the point of attachment. Orn(4R-OH,5R-OH) = O=C([C@H](C[C@@H](O)[C@@H](O)N[*:3])N[*:1])[*:2]; X3 = O=C([C@@H](N[*:1])[C@H](O)[C@@H](O)c1ccc(OP(=O)(O)O)cc1)[*:2]; hTyr(3S-OH,4S-OH) = N[C@H](C(=O)O)[C@H](O)[C@@H](O)c1ccc(O)cc1; X4 = O=C([C@@H](N[*:1])[C@H](O)[C@H](O)c1ccc(O)cc1)[*:2]; X2 = O=C([C@@H](N[*:1])[C@H](O)[C@@H](O)c1ccccc1)[*:2]; X6 = O=C(Oc1ccc(O)cc1)[C@@H](O)[C@H](N[*:1])C(=O)[*:2]; hTyr(3R-OH) = N[C@H](C(=O)O)[C@H](O)Cc1ccc(O)cc1; Gln(3R-OH) = NC(=O)C[C@@H](O)[C@H](N)C(=O)O; X5 = O=C([C@@H](N[*:1])[C@H](O)CO)[*:2]; Pro(3S-OH) = O=C(O)[C@H]1NCC[C@@H]1O; Hyp = O=C(O)[C@@H]1C[C@@H](O)CN1; X1 = CCC(C)CC(C)CCCCCCCCC(=O)*

With `CCC(C)CC(C)CCCCCCCCC(=O)N[C@H]1C[C@@H](O)[C@@H](O)NC(=O)[C@@H]2[C@@H](O)CCN2C(=O)[C@H]([C@H](O)CC(N)=O)NC(=O)[C@H]([C@H](O)[C@@H](O)c2ccccc2)NC(=O)[C@@H]2C[C@@H](O)CN2C(=O)[C@H]([C@@H](C)O)NC1=O` (stereo partly drawn) (X1-[Orn(4R-OH,5R-OH)]T[Hyp][X2][Gln(3R-OH)][Pro(3S-OH)]; lactam 1-C), the MFC in assay [1] is 4 µg/mL (≈ 3.81 µM); in assay [3], over 128 µg/mL; in assay [4] it was 1 µg/mL (≈ 0.953 µM). In assay [2], this molecule came in with an IC50 of over 10000 nM. In addition, the MED99.9 in assay [5] is over 6 mg/kg.

Regarding `CCC(C)CC(C)CCCCCCCCC(=O)N[C@H]1C[C@@H](O)[C@@H](O)NC(=O)[C@@H]2[C@@H](O)CCN2C(=O)[C@H]([C@H](O)CC(N)=O)NC(=O)[C@H]([C@H](O)[C@@H](O)c2ccc(OP(=O)(O)O)cc2)NC(=O)[C@@H]2C[C@@H](O)CN2C(=O)[C@H]([C@@H](C)O)NC1=O` (stereo partly drawn) (X1-[Orn(4R-OH,5R-OH)]T[Hyp][X3][Gln(3R-OH)][Pro(3S-OH)]; lactam 1-C), the MFC in assay [1] came out at 2 µg/mL (≈ 1.75 µM); in assay [3], 32 µg/mL (≈ 27.9 µM); in assay [4] it was 4 µg/mL (≈ 3.49 µM). Moreover, the IC50 in assay [2] is over 10000 nM. The MED99.9 in assay [5] amounted to 6 mg/kg.

Regarding `CCC(C)CC(C)CCCCCCCCC(=O)N[C@H]1C[C@@H](O)[C@@H](O)NC(=O)[C@@H]2[C@@H](O)CCN2C(=O)[C@H]([C@H](O)CC(N)=O)NC(=O)[C@H]([C@H](O)[C@H](O)c2ccc(O)cc2)NC(=O)[C@@H]2C[C@@H](O)CN2C(=O)[C@H]([C@@H](C)O)NC1=O` (stereo partly drawn) (X1-[Orn(4R-OH,5R-OH)]T[Hyp][X4][Gln(3R-OH)][Pro(3S-OH)]; lactam 1-C), the MFC in assay [1] was 8 µg/mL (≈ 7.51 µM); in assay [3], over 128 µg/mL; in assay [4], 64 µg/mL (≈ 60.1 µM). The IC50 in assay [2] stood at 5000 nM. Further, the MED99.9 in assay [6] is over 6 mg/kg.

As for `CCC(C)CC(C)CCCCCCCCC(=O)N[C@H]1C[C@@H](O)[C@@H](O)NC(=O)[C@@H]2[C@@H](O)CCN2C(=O)[C@H]([C@H](O)CC(N)=O)NC(=O)[C@H]([C@H](O)CO)NC(=O)[C@@H]2C[C@@H](O)CN2C(=O)[C@H]([C@@H](C)O)NC1=O` (stereo partly drawn) (X1-[Orn(4R-OH,5R-OH)]T[Hyp][X5][Gln(3R-OH)][Pro(3S-OH)]; lactam 1-C), the MFC in assay [1] was determined as 32 µg/mL (≈ 32.9 µM); in assay [3], 8 µg/mL (≈ 8.22 µM); in assay [4], 8 µg/mL (≈ 8.22 µM). In assay [2], this molecule came in with an IC50 of over 1000 nM.

In the case of `CCC(C)CC(C)CCCCCCCCC(=O)N[C@H]1C[C@@H](O)[C@@H](O)NC(=O)[C@@H]2[C@@H](O)CCN2C(=O)[C@H]([C@H](O)CC(N)=O)NC(=O)[C@H]([C@H](O)C(=O)Oc2ccc(O)cc2)NC(=O)[C@@H]2C[C@@H](O)CN2C(=O)[C@H]([C@@H](C)O)NC1=O` (stereo partly drawn) (X1-[Orn(4R-OH,5R-OH)]T[Hyp][X6][Gln(3R-OH)][Pro(3S-OH)]; lactam 1-C), the MFC was 32 µg/mL (≈ 29.7 µM) in assay [1], 1 µg/mL (≈ 0.927 µM) in assay [3] and 8 µg/mL (≈ 7.41 µM) in assay [4]. Also, the half-inhibitory concentration (IC50) in assay [2] was over 1000 nM.

Consider `CCC(C)CC(C)CCCCCCCCC(=O)N[C@H]1C[C@@H](O)[C@@H](O)NC(=O)[C@@H]2[C@@H](O)CCN2C(=O)[C@H]([C@H](O)CC(N)=O)NC(=O)[C@H]([C@H](O)Cc2ccc(O)cc2)NC(=O)[C@@H]2C[C@@H](O)CN2C(=O)[C@H]([C@@H](C)O)NC1=O` (stereo partly drawn) (X1-[Orn(4R-OH,5R-OH)]T[Hyp][hTyr(3R-OH)][Gln(3R-OH)][Pro(3S-OH)]; lactam 1-C), for which the minimum fungicidal concentration (MFC) in assay [1] was 0.25 µg/mL (≈ 0.238 µM); in assay [3], 4 µg/mL (≈ 3.81 µM); in assay [4], under 0.06 µg/mL. For the same molecule, in assay [2], the half-maximal inhibitory concentration (IC50) is 40 nM. In assay [6], this molecule displayed an MED99.9 of 3 mg/kg.

For `CCC(C)CC(C)CCCCCCCCC(=O)N[C@H]1C[C@@H](O)[C@@H](O)NC(=O)[C@@H]2[C@@H](O)CCN2C(=O)[C@H]([C@H](O)CC(N)=O)NC(=O)[C@H]([C@H](O)[C@@H](O)c2ccc(O)cc2)NC(=O)[C@@H]2C[C@@H](O)CN2C(=O)[C@H]([C@@H](C)O)NC1=O` (stereo partly drawn) (X1-[Orn(4R-OH,5R-OH)]T[Hyp][hTyr(3S-OH,4S-OH)][Gln(3R-OH)][Pro(3S-OH)]; lactam 1-C), the values for the MFC in assay [1], in assay [3] and in assay [4] were 0.25 µg/mL (≈ 0.235 µM), 4 µg/mL (≈ 3.76 µM) and 0.06 µg/mL (≈ 0.0563 µM), respectively. For the same molecule, it took 70 nM to reach half-maximal inhibition in assay [2] (IC50). Further, in assay [5], the MED99.9 turned out to be 6 mg/kg.
